# Data taken from patent publication US20240270701A1, “BETA ADRENERGIC AGONIST AND METHODS OF USING THE SAME” (Curasen Therapeutics, Inc., priority 2021, published 2024).
# Like-named read-outs stand apart in the source and are kept apart here.
# Assays:
# B2-AR = biological target: T1, B2-AR (Homo sapiens, UniProt P07550); test: cAMP Gs dynamic HTRF assay, cells expressing beta-adrenergic receptor (CHO-K1), B2-AR; assay type: cell-based; settings: for EC50: cAMP HTRF, read-out: pEC50 [B2-AR] (converted); for Emax: relative to full agonist isoproterenol, read-out: Emax (% iso) (%) [B2-AR]
# T1 construct: expressed in transfected cells; host or cells: CHO-K1
# T1 sequence (P07550 whole entry, species assumed): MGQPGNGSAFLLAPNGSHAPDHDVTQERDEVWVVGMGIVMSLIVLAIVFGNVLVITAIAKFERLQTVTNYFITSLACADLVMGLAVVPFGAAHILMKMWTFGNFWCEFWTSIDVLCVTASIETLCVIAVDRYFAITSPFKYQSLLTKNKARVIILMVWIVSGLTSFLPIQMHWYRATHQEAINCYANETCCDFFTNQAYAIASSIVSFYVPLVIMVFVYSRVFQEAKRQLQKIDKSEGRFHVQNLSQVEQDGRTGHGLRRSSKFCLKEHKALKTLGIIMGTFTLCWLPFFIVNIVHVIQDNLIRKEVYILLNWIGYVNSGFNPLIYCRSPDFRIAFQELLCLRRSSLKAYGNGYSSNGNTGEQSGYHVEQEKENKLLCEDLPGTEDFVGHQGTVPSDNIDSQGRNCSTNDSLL
# B1-AR = biological target: T2, B1-AR (Homo sapiens, UniProt P08588); test: cAMP Gs dynamic HTRF assay, cells expressing beta-adrenergic receptor (CHO-K1), B1-AR; assay type: cell-based; settings: for EC50: cAMP HTRF, read-out: pEC50 [B1-AR] (converted); for Emax: relative to full agonist isoproterenol, read-out: Emax (% iso) (%) [B1-AR]
# T2 construct: expressed in transfected cells; host or cells: CHO-K1
# T2 sequence (P08588 whole entry, species assumed): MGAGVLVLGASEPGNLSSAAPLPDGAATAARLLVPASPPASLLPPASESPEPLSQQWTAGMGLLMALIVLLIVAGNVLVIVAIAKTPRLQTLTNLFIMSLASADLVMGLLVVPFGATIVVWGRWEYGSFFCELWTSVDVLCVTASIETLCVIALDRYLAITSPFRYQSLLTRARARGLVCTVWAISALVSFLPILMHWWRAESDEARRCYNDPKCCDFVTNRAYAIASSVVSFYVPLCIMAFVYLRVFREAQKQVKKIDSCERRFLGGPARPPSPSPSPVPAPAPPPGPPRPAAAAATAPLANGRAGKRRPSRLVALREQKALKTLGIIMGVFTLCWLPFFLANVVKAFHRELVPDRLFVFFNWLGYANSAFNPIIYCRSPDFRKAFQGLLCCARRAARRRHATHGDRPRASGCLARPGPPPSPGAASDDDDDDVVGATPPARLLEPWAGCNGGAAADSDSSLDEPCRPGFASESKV
SMILES,EC50 (B2-AR; CHO-K1 cells),Emax (B2-AR; CHO-K1 cells),EC50 (B1-AR),Emax (B1-AR),"Emax (B2-AR; CHO-K1, CHO-K1 cells)"
CC(C)[C@@H](C)NC[C@H](O)c1cc(F)cc2[nH]ncc12 [I-27],< 10 nM,> 90%,< 10 nM,> 90%,
CC(C)CNC[C@H](O)c1cccc2[nH]nc(F)c12 [I-138],< 10 nM,> 90%,10 to 100 nM,70 to 90%,
CNc1ncc([C@@H](O)CNC(C)(C)C)cn1 [I-70],10 to 100 nM,50 to 70%,100 to 1000 nM,70 to 90%,
Cc1ncccc1[C@@H](O)CNC(C)C [I-184],100 to 1000 nM,,> 1000 nM,70 to 90%,70 to 90%
CC[C@H](C)NC[C@H](O)c1cc(F)cc2[nH]ncc12 [I-34],< 10 nM,70 to 90%,< 10 nM,> 90%,
CC(C)(C)NC[C@H](O)c1cccc2[nH]nc(C(N)=O)c12 [I-95],100 to 1000 nM,50 to 70%,100 to 1000 nM,70 to 90%,
CC(C)CNC[C@H](O)c1cccc2[nH]nc(Cl)c12 [I-99],10 to 100 nM,70 to 90%,100 to 1000 nM,70 to 90%,
O[C@@H](CNC1CC1)c1cccc2[nH]cc(F)c12 [I-108],10 to 100 nM,,10 to 100 nM,> 90%,> 90%
CC1(NC[C@H](O)c2cccc3[nH]nc(Cl)c23)CCC1 [I-96],< 10 nM,> 90%,< 10 nM,70 to 90%,
